Experimental data from BindingDB's records for doi:10.1016/s0960-894x(03)00680-2 (Merck Research Laboratories, 2003).
pIC50: −log10 of the molar value.

How the values were obtained:
Assay in all cases: Protease Inhibition Assay
[1] = molecular target: T1, Dimer of Gag-Pol polyprotein [489-587,Q496K,L499I,N526S,R530K,M535I,I543V,I551V,L552P,A560V,V566I,V571A,L579M,I582L] (Human immunodeficiency virus 1, UniProt P12497, A560V/I543V/I551V/I582L/L499I/L552P/L579M/M535I/N526S/Q496K/R530K/V566I/V571A)
T1 construct: 489-587
Protocol: (§1) Assay of HIV protease inhibition was performed by peptide cleavage using the substrate Val-Ser-Gln-Asn-beta-naphthylalanine*Pro-Ile-Val. Products of the cleavage reaction were quantified by HPLC detection, and data were fit to nonlinear least squares equations for determination of steady-state Michaelis-Menten kinetics.

[2] = molecular target: T2, Dimer of Gag-Pol polyprotein [489-587,Q496K] (Human immunodeficiency virus 1, UniProt P12497, Q496K); conditions: pH 5.5; 30 °C
T2 construct: 489-587
Protocol: as §1

[3] = molecular target: T3, Dimer of Gag-Pol polyprotein [489-587,Q496K,L499I,M525I,N526D,M535I,R546K,L552P,A560V,G562S,I573V,L579M,I582L] (Human immunodeficiency virus 1, UniProt P12497, A560V/G562S/I573V/I582L/L499I/L552P/L579M/M525I/M535I/N526D/Q496K/R546K)
T3 construct: 489-587
Protocol: as §1

[4] = molecular target: T4, Dimer of Gag-Pol polyprotein [489-587,Q496K,L499I,M535I,I543V,Q547E,L552P,I553V,V566I,V571F,I573V,L579M,I582L] (Human immunodeficiency virus 1, UniProt P12497, I543V/I553V/I573V/I582L/L499I/L552P/L579M/M535I/Q496K/Q547E/V566I/V571F)
T4 construct: 489-587
Protocol: as §1

Row | Structure (SMILES) | pIC50 [1] | pIC50 [2] | pIC50 [3] | pIC50 [4]
1 | O=C(N[C@H]1c2ccccc2OC[C@H]1O)[C@H](Cc1cccnc1)C[C@H](O)CN1CCN(Cc2cc3ccsc3s2)C[C@H]1C(=O)NCC(F)(F)F [(2S)-1-[(2S,4R)-2-hydroxy-4-{[(3S,4S)-3-hydroxy-3,4-dihydro-2H-1-benzopyran-4-yl]carbamoyl}-4-(pyridin-3-ylmethyl)butyl]-4-{thieno[2,3-b]thiophen-2-ylmethyl}-N-(2,2,2-trifluoroethyl)piperazine-2-carboxamide] | 8.49 | 10.52 | 9.37 | 8.30
2 | O=C(N[C@H]1c2ccccc2OC[C@H]1O)[C@H](Cc1ccncc1)C[C@H](O)CN1CCN(Cc2cc3ccsc3s2)C[C@H]1C(=O)NCC(F)(F)F [(2S)-1-[(2S,4R)-2-hydroxy-4-{[(3S,4S)-3-hydroxy-3,4-dihydro-2H-1-benzopyran-4-yl]carbamoyl}-4-(pyridin-4-ylmethyl)butyl]-4-{thieno[2,3-b]thiophen-2-ylmethyl}-N-(2,2,2-trifluoroethyl)piperazine-2-carboxamide] | 8.32 | 10.15 | 8.92 | 7.70
